Test results reported in PubChem BioAssay (NCI).
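Protocol summary: plate cells (96-well), add compound at 5 concentrations, incubate 48 h, interpolate endpoints linearly. GI50: concentration for 50% inhibition of growth. TGI is the concentration that stops growth completely.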

Tests used:
Assay in all cases: DTP human tumour cell line panel, 48 h
BT-549 breast = tested on: BT-549 breast
DU-145 prostate = tested on: DU-145 prostate
SK-OV-3 ovarian = tested on: SK-OV-3 ovarian
HCT-116 colon = tested on: HCT-116 colon
A498 renal = tested on: A498 renal
CCRF-CEM leukemia = tested on: CCRF-CEM leukemia
786-0 renal = tested on: 786-0 renal
U251 CNS = tested on: U251 CNS
SNB-75 CNS = tested on: SNB-75 CNS
PC-3 prostate = tested on: PC-3 prostate
SK-MEL-2 melanoma = tested on: SK-MEL-2 melanoma
HOP-62 NSCLC = tested on: HOP-62 NSCLC
SR leukemia = tested on: SR leukemia
SNB-19 CNS = tested on: SNB-19 CNS
ACHN renal = tested on: ACHN renal
SF-295 CNS = tested on: SF-295 CNS
K-562 leukemia = tested on: K-562 leukemia
RPMI-8226 leukemia = tested on: RPMI-8226 leukemia
HS 578T breast = tested on: HS 578T breast
OVCAR-5 ovarian = tested on: OVCAR-5 ovarian
HCC-2998 colon = tested on: HCC-2998 colon
HOP-92 NSCLC = tested on: HOP-92 NSCLC
SF-539 CNS = tested on: SF-539 CNS
UACC-62 melanoma = tested on: UACC-62 melanoma
LOX IMVI melanoma = tested on: LOX IMVI melanoma
UACC-257 melanoma = tested on: UACC-257 melanoma
SF-268 CNS = tested on: SF-268 CNS
COLO 205 colon = tested on: COLO 205 colon
NCI/ADR-RES ovarian = tested on: NCI/ADR-RES ovarian
CAKI-1 renal = tested on: CAKI-1 renal
KM12 colon = tested on: KM12 colon
NCI-H522 lung = tested on: NCI-H522 lung
SN12C renal = tested on: SN12C renal
A549 NSCLC = tested on: A549 NSCLC
NCI-H23 lung = tested on: NCI-H23 lung
RXF 393 renal = tested on: RXF 393 renal
NCI-H460 lung = tested on: NCI-H460 lung
OVCAR-4 ovarian = tested on: OVCAR-4 ovarian
NCI-H226 lung = tested on: NCI-H226 lung
MOLT-4 leukemia = tested on: MOLT-4 leukemia
HCT-15 colon = tested on: HCT-15 colon
UO-31 renal = tested on: UO-31 renal
SK-MEL-5 melanoma = tested on: SK-MEL-5 melanoma
MDA-MB-435 = tested on: MDA-MB-435
OVCAR-8 ovarian = tested on: OVCAR-8 ovarian
HT29 colon = tested on: HT29 colon
EKVX NSCLC = tested on: EKVX NSCLC
M14 melanoma = tested on: M14 melanoma
MDA-MB-231 breast = tested on: MDA-MB-231 breast
IGROV1 ovarian = tested on: IGROV1 ovarian
MALME-3M melanoma = tested on: MALME-3M melanoma
HL-60(TB) leukemia = tested on: HL-60(TB) leukemia
SK-MEL-28 melanoma = tested on: SK-MEL-28 melanoma
TK-10 renal = tested on: TK-10 renal
SW-620 colon = tested on: SW-620 colon
MCF7 breast = tested on: MCF7 breast

NC(=O)c1c(NC(=O)c2cccc(C(F)(F)F)c2F)sc2c1CCC(=O)C2
GI50 (BT-549 breast): 0.327 µM | TGI (BT-549 breast): > 100 µM | GI50 (DU-145 prostate): > 100 µM | TGI (DU-145 prostate): > 100 µM | GI50 (SK-OV-3 ovarian): > 100 µM | TGI (SK-OV-3 ovarian): > 100 µM | GI50 (HCT-116 colon): 0.306 µM | TGI (HCT-116 colon): > 100 µM | GI50 (A498 renal): > 100 µM | TGI (A498 renal): > 100 µM | GI50 (CCRF-CEM leukemia): 0.212 µM | TGI (CCRF-CEM leukemia): > 100 µM | GI50 (786-0 renal): 2.2 µM | TGI (786-0 renal): > 100 µM | GI50 (U251 CNS): 0.315 µM | TGI (U251 CNS): > 100 µM | GI50 (SNB-75 CNS): 2.16 µM | TGI (SNB-75 CNS): 39.1 µM | GI50 (PC-3 prostate): 0.27 µM | TGI (PC-3 prostate): > 100 µM | GI50 (SK-MEL-2 melanoma): > 100 µM | TGI (SK-MEL-2 melanoma): > 100 µM | GI50 (HOP-62 NSCLC): 6.69 µM | TGI (HOP-62 NSCLC): > 100 µM | GI50 (SR leukemia): 0.326 µM | TGI (SR leukemia): > 100 µM | GI50 (SNB-19 CNS): 0.577 µM | TGI (SNB-19 CNS): > 100 µM | GI50 (ACHN renal): 0.337 µM | TGI (ACHN renal): > 100 µM | GI50 (SF-295 CNS): 3.09 µM | TGI (SF-295 CNS): > 100 µM | GI50 (K-562 leukemia): 0.231 µM | TGI (K-562 leukemia): > 100 µM | GI50 (RPMI-8226 leukemia): 0.231 µM | GI50 (HS 578T breast): 0.831 µM | TGI (HS 578T breast): > 100 µM

CCCCCc1ccc(S(=O)(=O)Nc2cccc(-c3csc(NCCN4CCN(C)CC4)n3)c2)cc1
GI50 (OVCAR-5 ovarian): 1.89 µM | TGI (OVCAR-5 ovarian): 4.01 µM | GI50 (HCC-2998 colon): 1.75 µM | TGI (HCC-2998 colon): 3.24 µM | GI50 (HOP-92 NSCLC): 1.28 µM | TGI (HOP-92 NSCLC): 2.73 µM | GI50 (SF-539 CNS): 1.7 µM | TGI (SF-539 CNS): 3.11 µM | GI50 (BT-549 breast): 1.56 µM | TGI (BT-549 breast): 2.97 µM | GI50 (UACC-62 melanoma): 1.82 µM | TGI (UACC-62 melanoma): 3.47 µM | GI50 (LOX IMVI melanoma): 1.69 µM | TGI (LOX IMVI melanoma): 3.13 µM | GI50 (DU-145 prostate): 1.96 µM | TGI (DU-145 prostate): 3.92 µM | GI50 (UACC-257 melanoma): 1.73 µM | TGI (UACC-257 melanoma): 3.27 µM | GI50 (SF-268 CNS): 1.76 µM | TGI (SF-268 CNS): 3.63 µM | GI50 (COLO 205 colon): 1.64 µM | TGI (COLO 205 colon): 3.16 µM | GI50 (SK-OV-3 ovarian): 1.75 µM | TGI (SK-OV-3 ovarian): 3.35 µM | GI50 (NCI/ADR-RES ovarian): 1.84 µM | TGI (NCI/ADR-RES ovarian): 4.25 µM | GI50 (CAKI-1 renal): 1.52 µM | TGI (CAKI-1 renal): 3.19 µM | GI50 (KM12 colon): 1.72 µM | TGI (KM12 colon): 3.22 µM | GI50 (NCI-H522 lung): 1.8 µM | TGI (NCI-H522 lung): 3.43 µM | GI50 (SN12C renal): 2.01 µM | TGI (SN12C renal): 4.48 µM | GI50 (A498 renal): 1.53 µM | TGI (A498 renal): 3.12 µM | GI50 (A549 NSCLC): 1.72 µM | TGI (A549 NSCLC): 3.3 µM | GI50 (NCI-H23 lung): 1.81 µM | TGI (NCI-H23 lung): 3.62 µM | GI50 (RXF 393 renal): 1.41 µM | TGI (RXF 393 renal): 2.9 µM | GI50 (NCI-H460 lung): 1.78 µM | TGI (NCI-H460 lung): 3.29 µM | GI50 (CCRF-CEM leukemia): 2.59 µM | TGI (CCRF-CEM leukemia): 9.63 µM | GI50 (786-0 renal): 1.67 µM | TGI (786-0 renal): 3.08 µM | GI50 (OVCAR-4 ovarian): 2.02 µM | TGI (OVCAR-4 ovarian): 5.18 µM | GI50 (U251 CNS): 1.7 µM | TGI (U251 CNS): 3.23 µM | GI50 (SNB-75 CNS): 1.39 µM | TGI (SNB-75 CNS): 2.89 µM | GI50 (PC-3 prostate): 1.86 µM | TGI (PC-3 prostate): 4.42 µM | GI50 (NCI-H226 lung): 1.85 µM | TGI (NCI-H226 lung): 3.93 µM | GI50 (SK-MEL-2 melanoma): 1.76 µM | TGI (SK-MEL-2 melanoma): 3.33 µM | GI50 (HOP-62 NSCLC): 1.73 µM | TGI (HOP-62 NSCLC): 3.32 µM | GI50 (SR leukemia): 2.47 µM | TGI (SR leukemia): > 100 µM | GI50 (SNB-19 CNS): 1.96 µM | TGI (SNB-19 CNS): 4.05 µM | GI50 (MOLT-4 leukemia): 3.36 µM | TGI (MOLT-4 leukemia): 14.6 µM | GI50 (HCT-15 colon): 1.68 µM | TGI (HCT-15 colon): 3.31 µM | GI50 (UO-31 renal): 1.42 µM | TGI (UO-31 renal): 2.94 µM | GI50 (SK-MEL-5 melanoma): 1.78 µM | TGI (SK-MEL-5 melanoma): 3.19 µM | GI50 (MDA-MB-435): 1.7 µM | TGI (MDA-MB-435): 3.3 µM | GI50 (OVCAR-8 ovarian): 1.84 µM | TGI (OVCAR-8 ovarian): 3.5 µM | GI50 (HT29 colon): 1.9 µM | TGI (HT29 colon): 3.71 µM | GI50 (EKVX NSCLC): 1.67 µM | TGI (EKVX NSCLC): 3.61 µM | GI50 (ACHN renal): 1.75 µM | TGI (ACHN renal): 3.24 µM | GI50 (SF-295 CNS): 1.86 µM | TGI (SF-295 CNS): 3.54 µM | GI50 (K-562 leukemia): 3.02 µM | TGI (K-562 leukemia): > 100 µM | GI50 (M14 melanoma): 1.77 µM | TGI (M14 melanoma): 3.42 µM | GI50 (MDA-MB-231 breast): 1.63 µM | TGI (MDA-MB-231 breast): 3.3 µM | GI50 (IGROV1 ovarian): 1.63 µM | TGI (IGROV1 ovarian): 3.18 µM | GI50 (MALME-3M melanoma): 1.54 µM | TGI (MALME-3M melanoma): 2.99 µM | GI50 (HL-60(TB) leukemia): 2.31 µM | TGI (HL-60(TB) leukemia): 5.34 µM | GI50 (SK-MEL-28 melanoma): 1.87 µM | TGI (SK-MEL-28 melanoma): 3.36 µM | GI50 (HS 578T breast): 1.83 µM | TGI (HS 578T breast): 4.22 µM | GI50 (TK-10 renal): 1.8 µM | TGI (TK-10 renal): 3.61 µM | GI50 (SW-620 colon): 1.66 µM | TGI (SW-620 colon): 3.12 µM | GI50 (MCF7 breast): 1.69 µM | TGI (MCF7 breast): 3.33 µM
